This passage reports TGI and GI50 results from PubChem BioAssay (NCI).

Each structure is given as a SMILES string.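 Following 48 hours of exposure in 96-well plates, responses at five concentrations were used to interpolate endpoints linearly. At the GI50, growth is halved. The concentration for full growth arrest is given as TGI.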 Some results are limits rather than exact numbers.

The test system of one experiment is HCT-15 colon. Description: NCI-60 cell line screen, 48 h.
Regarding `ONc1ncnc2nc[nH]c12`, the TGI was greater than 100 µM.

The compound `CCCc1[nH]c(SCCCCCCCCSc2nc(-c3ccc(F)cc3)c(CCC)[nH]2)nc1-c1ccc(F)cc1` yielded a TGI greater than 100 µM.

`O=S(=O)(O)c1ccc2cccc(N=Nc3c(O)ccc4ccccc34)c2c1` came in with a TGI greater than 100 µM.

As for `COc1ccc2nc(-c3ccc(-c4noc(-c5cc(OC)c(OC)c(OC)c5)n4)cc3)[nH]c2c1`, the GI50 is 1.49 µM and the TGI worked out at 13.3 µM.

Turning to `COc1ccc(/C(=C2/O[C@@H]([C@H]3COC(C)(C)O3)[C@H]3OC(C)(C)O[C@@H]23)c2cc(OC)c(OC)c(OC)c2)cc1O`, the GI50 is 4.06 µM and the TGI is 39.7 µM.

`Cn1c(=O)c2c(nc(-n3nc(-c4ccc(Cl)cc4)cc3N)n2C)n(C)c1=O` showed a TGI greater than 100 µM.

Compound `N=c1c2c(C(N)=O)cn(C3OC(CO)C(O)C3O)c2ncn1O` (centres undefined) returned a TGI of 0.388 µM.

In the case of `CCS(=O)(=O)Nc1ccc(Nc2c3ccccc3nc3ccccc23)c(OC)c1`, the TGI was found to be 5.11 µM.

The compound `Cc1nc(N)nc(N)c1-c1ccc(Cl)c(Cl)c1` came in with a TGI greater than 100 µM.

Turning to `Cc1cccc2nc3c(C(=O)NCCN(C)C)cccc3cc12`, the TGI was 6.68 µM.

Compound `C[C@]12CC[C@@H]3c4ccc(OP(=O)(O)O)cc4CC[C@H]3[C@@H]1CCC2=O` had a TGI greater than 100 µM.

As to `CCSCCC(N)C(=O)O` (centres undefined), the TGI is greater than 100 µM.

The compound `COc1ccc2nc(N/N=C/C(C)=N/Nc3cc(C)c4cc(OC)ccc4n3)cc(C)c2c1` gave a TGI of 25.1 µM.

The subject of a further experiment is EKVX NSCLC. Description: NCI-60 cell line screen, 48 h.
Regarding `CCN(CC)CC(C)Nc1ccc([N+](=O)[O-])c2sc3ccccc3c(=O)c12` (centres undefined), the GI50 is 2.79 µM and the TGI worked out at 23.4 µM.

For `CCOC(=O)CSc1nc(N)c2c(-c3ccc(OC)c(OC)c3)c3c(nc2n1)CCCC3`, the TGI is greater than 100 µM.

As to `CNC(=O)OC(C)CN1c2ccccc2Sc2ccc(Cl)cc21` (centres undefined), the TGI is greater than 10 µM.

On to `O=C(CCCCCCC(=O)Nc1ccc(N(CCCl)CCCl)cc1)NO`, for which the GI50 is 11.5 µM and the TGI came to 37.9 µM.

In the case of `CN1CC[C@@]2(c3cccc(O)c3)CC(=O)/C(=C/c3ccccc3)[C@H]1C2`, the TGI is 28.7 µM.

In turn, `CCCc1[nH]c(SCCCCCCCCSc2nc(-c3ccc(F)cc3)c(CCC)[nH]2)nc1-c1ccc(F)cc1` displayed a TGI of 52.5 µM.

Regarding `O=S(=O)(O)c1ccc2cccc(N=Nc3c(O)ccc4ccccc34)c2c1`, the TGI was greater than 100 µM.

On to `COc1ccc2nc(-c3ccc(-c4noc(-c5cc(OC)c(OC)c(OC)c5)n4)cc3)[nH]c2c1`, for which the GI50 is 26.2 µM and the TGI amounted to 84.9 µM.

Turning to `COc1ccc(/C(=C2/O[C@@H]([C@H]3COC(C)(C)O3)[C@H]3OC(C)(C)O[C@@H]23)c2cc(OC)c(OC)c(OC)c2)cc1O`, the GI50 is 37.4 µM and the TGI was greater than 100 µM.

Take `Cn1c(=O)c2c(nc(-n3nc(-c4ccc(Cl)cc4)cc3N)n2C)n(C)c1=O`: the TGI was greater than 100 µM.

Consider `N=c1c2c(C(N)=O)cn(C3OC(CO)C(O)C3O)c2ncn1O` (centres undefined), for which the TGI amounted to 6.67 µM.

For the compound `Cc1nc(N)nc(N)c1-c1ccc(Cl)c(Cl)c1`, the TGI is greater than 100 µM.

Consider `Cc1cccc2nc3c(C(=O)NCCN(C)C)cccc3cc12`, for which the TGI is 7.06 µM.

Compound `C[C@]12CC[C@@H]3c4ccc(OP(=O)(O)O)cc4CC[C@H]3[C@@H]1CCC2=O` displayed a TGI greater than 100 µM.

For `CCSCCC(N)C(=O)O` (centres undefined), the TGI is greater than 100 µM.

`COc1ccc2nc(N/N=C/C(C)=N/Nc3cc(C)c4cc(OC)ccc4n3)cc(C)c2c1` gave a TGI of 40.2 µM.

For another experiment, the system named is MOLT-4 leukemia. Description: NCI-60 cell line screen, 48 h.
For `N=C(N)c1ccc(-c2ccc(-c3cc(Cl)cc(Cl)c3)o2)nc1`, the GI50 is 2.46 µM and the TGI is 5.05 µM.

With `CCOC(=O)CSc1nc(N)c2c(-c3ccc(OC)c(OC)c3)c3c(nc2n1)CCCC3`, the TGI was greater than 100 µM.

For `CNC(=O)OC(C)CN1c2ccccc2Sc2ccc(Cl)cc21` (centres undefined), the TGI is greater than 10 µM.

On to `O=C(CCCCCCC(=O)Nc1ccc(N(CCCl)CCCl)cc1)NO`, for which the GI50 was 0.421 µM and the TGI came out at 4.26 µM.

`CN1CC[C@@]2(c3cccc(O)c3)CC(=O)/C(=C/c3ccccc3)[C@H]1C2` had a TGI of 6.21 µM.

Compound `O=C(N/N=C(/c1ccccc1)C(F)(F)F)c1ccncc1` returned a TGI greater than 100 µM.

`ONc1ncnc2nc[nH]c12` returned a TGI greater than 100 µM.

As for `CCCc1[nH]c(SCCCCCCCCSc2nc(-c3ccc(F)cc3)c(CCC)[nH]2)nc1-c1ccc(F)cc1`, the TGI is greater than 100 µM.

Regarding `O=S(=O)(O)c1ccc2cccc(N=Nc3c(O)ccc4ccccc34)c2c1`, the TGI is greater than 100 µM.

For `COc1ccc2nc(-c3ccc(-c4noc(-c5cc(OC)c(OC)c(OC)c5)n4)cc3)[nH]c2c1`, the GI50 was 5.29 µM and the TGI worked out at 59.1 µM.

`COc1ccc(/C(=C2/O[C@@H]([C@H]3COC(C)(C)O3)[C@H]3OC(C)(C)O[C@@H]23)c2cc(OC)c(OC)c(OC)c2)cc1O`: the GI50 is 24.2 µM and the TGI is greater than 100 µM.

As to `Cn1c(=O)c2c(nc(-n3nc(-c4ccc(Cl)cc4)cc3N)n2C)n(C)c1=O`, the TGI was greater than 100 µM.

In turn, `N=c1c2c(C(N)=O)cn(C3OC(CO)C(O)C3O)c2ncn1O` (centres undefined) yielded a TGI of 0.491 µM.

In turn, `CCS(=O)(=O)Nc1ccc(Nc2c3ccccc3nc3ccccc23)c(OC)c1` registered a TGI of 10.6 µM.

The compound `Cc1nc(N)nc(N)c1-c1ccc(Cl)c(Cl)c1` returned a TGI greater than 100 µM.

`C[C@]12CC[C@@H]3c4ccc(OP(=O)(O)O)cc4CC[C@H]3[C@@H]1CCC2=O`: the TGI was greater than 100 µM.

As to `CCSCCC(N)C(=O)O` (centres undefined), the TGI was greater than 100 µM.

In turn, `COc1ccc2nc(N/N=C/C(C)=N/Nc3cc(C)c4cc(OC)ccc4n3)cc(C)c2c1` yielded a TGI of 42.1 µM.

The subject of the next experiment is MCF7 breast. Description: NCI-60 cell line screen, 48 h.
With `CCN(CC)CC(C)Nc1ccc([N+](=O)[O-])c2sc3ccccc3c(=O)c12` (centres undefined), the GI50 is 0.452 µM and the TGI worked out at 2.36 µM.
